In US10597388B2, “Pyridazinone herbicides” (FMC CORPORATION, priority 2014, dated 2020):

Key:
Assay in all cases: Test C greenhouse herbicide test, pre- and postemergence
Type in all cases: in vivo
[1] = tested on: crabgrass, large (large crabgrass, Digitaria sanguinalis); details: for Plant response rating, Crabgrass, Large: scale 0 to 100 (0 no effect, 100 complete control)
In short: (§1)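 Pre- and postemergence greenhouse screen; values are visual control ratings, 0 meaning no effect and 100 complete kill, assigned relative to untreated plants after 13 to 15 d.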

[2] = tested on: pigweed (Amaranthus retroflexus); details: for Plant response rating, Pigweed: scale 0 to 100 (0 no effect, 100 complete control)
In short: as §1

[3] = tested on: nutsedge, yellow (yellow nutsedge, Cyperus esculentus); details: for Plant response rating, Nutsedge, Yellow: scale 0 to 100 (0 no effect, 100 complete control)
In short: as §1

[4] = tested on: ragweed (common ragweed, Ambrosia elatior); details: for Plant response rating, Ragweed: scale 0 to 100 (0 no effect, 100 complete control)
In short: as §1

[5] = tested on: velvetleaf (Abutilon theophrasti); details: for Plant response rating, Velvetleaf: scale 0 to 100 (0 no effect, 100 complete control)
In short: as §1

[6] = tested on: barnyardgrass (Echinochloa crus-galli); details: Postemergence
In short: as §1

[7] = tested on: oilseed rape (Brassica napus); details: for Plant response rating, Oilseed Rape: scale 0 to 100 (0 no effect, 100 complete control)
In short: as §1

[8] = tested on: morningglory (Ipomoea coccinea); details: for Plant response rating, Morningglory: scale 0 to 100 (0 no effect, 100 complete control)
In short: as §1

[9] = tested on: blackgrass (Alopecurus myosuroides); details: for Plant response rating, Blackgrass: scale 0 to 100 (0 no effect, 100 complete control)
In short: as §1

[10] = tested on: lambsquarters (Chenopodium album); details: for Plant response rating, Lambsquarters: scale 0 to 100 (0 no effect, 100 complete control)
In short: as §1

[11] = tested on: galium (catchweed bedstraw, Galium aparine); details: for Plant response rating, Galium: scale 0 to 100 (0 no effect, 100 complete control)
In short: as §1

[12] = tested on: waterhemp (common waterhemp, Amaranthus rudis); details: for Plant response rating, Waterhemp: scale 0 to 100 (0 no effect, 100 complete control)
In short: as §1

[13] = tested on: wheat (winter wheat, Triticum aestivum); details: for Plant response rating, Wheat: scale 0 to 100 (0 no effect, 100 complete control)
In short: as §1

[14] = tested on: foxtail, giant (giant foxtail, Setaria faberii); details: for Plant response rating, Foxtail, Giant: scale 0 to 100 (0 no effect, 100 complete control)
In short: as §1

[15] = tested on: johnsongrass (Sorghum halepense); details: for Plant response rating, Johnsongrass: scale 0 to 100 (0 no effect, 100 complete control)
In short: as §1

soybean (Glycine max) = details: for Plant response rating, Soybean: scale 0 to 100 (0 no effect, 100 complete control)
In short: as §1

[16] = Postemergence, 62 g ai/ha, 0 to 100 scale (0 no effect, 100 complete control)
[17] = postemergence, 125 g ai/ha, scale 0 to 100, 0 no effect, 100 complete control

## COC(=O)Oc1cnn(C)c(=O)c1-c1c(C)ccc2ccccc12 [Compound 143]
[1]; Postemergence, 16 g ai/ha
  Plant response rating, Crabgrass, Large: 5
[1]; Postemergence, 31 g ai/ha
  Plant response rating, Crabgrass, Large: 10
[1]; [16]
  Crabgrass, Large plant response rating: 10
[1]; [17]
  Crabgrass, Large plant response rating: 30
[2]; Postemergence, 16 g ai/ha
  Plant response rating, Pigweed: 50
[2]; Postemergence, 31 g ai/ha
  Plant response rating, Pigweed: 50
[2]; [16]
  Pigweed plant response rating: 65
[2]; [17]
  Pigweed plant response rating: 75
[3]; Postemergence, 16 g ai/ha
  Plant response rating, Nutsedge, Yellow: 10
[3]; Postemergence, 31 g ai/ha
  Plant response rating, Nutsedge, Yellow: 10
[3]; [16]
  Nutsedge, Yellow plant response rating: 40
[3]; [17]
  Nutsedge, Yellow plant response rating: 35
[4]; Postemergence, 16 g ai/ha
  Plant response rating, Ragweed: 0
[4]; Postemergence, 31 g ai/ha
  Plant response rating, Ragweed: 0
[4]; [16]
  Ragweed plant response rating: 30
[4]; [17]
  Ragweed plant response rating: 70
[5]; Postemergence, 16 g ai/ha
  Plant response rating, Velvetleaf: 30
[5]; Postemergence, 31 g ai/ha
  Plant response rating, Velvetleaf: 20
[5]; [16]
  Velvetleaf plant response rating: 25
[5]; [17]
  Velvetleaf plant response rating: 50
[6]; 16 g ai/ha, scale 0 to 100 (0 no effect, 100 complete control)
  Plant response rating, Barnyardgrass: 15
[6]; 31 g ai/ha, scale 0 to 100 (0 no effect, 100 complete control)
  Plant response rating, Barnyardgrass: 20
[6]; 62 g ai/ha, 0 to 100 scale (0 no effect, 100 complete control)
  Barnyardgrass plant response rating: 25
[6]; 125 g ai/ha, scale 0 to 100, 0 is no effect, 100 is complete control
  Plant response rating, Barnyardgrass: 30
[7]; Postemergence, 16 g ai/ha
  Plant response rating, Oilseed Rape: 60
[7]; Postemergence, 31 g ai/ha
  Plant response rating, Oilseed Rape: 0
[7]; [16]
  Oilseed Rape plant response rating: 0
[7]; [17]
  Oilseed Rape plant response rating: 5
[8]; Postemergence, 16 g ai/ha
  Plant response rating, Morningglory: 30
[8]; Postemergence, 31 g ai/ha
  Plant response rating, Morningglory: 50
[8]; [16]
  Morningglory plant response rating: 65
[8]; [17]
  Morningglory plant response rating: 70
[9]; Postemergence, 16 g ai/ha
  Plant response rating, Blackgrass: 0
[9]; Postemergence, 31 g ai/ha
  Plant response rating, Blackgrass: 5
[9]; [16]
  Blackgrass plant response rating: 5
[9]; [17]
  Blackgrass plant response rating: 20
[10]; Postemergence, 16 g ai/ha
  Plant response rating, Lambsquarters: 10
[10]; Postemergence, 31 g ai/ha
  Plant response rating, Lambsquarters: 50
[10]; [16]
  Lambsquarters plant response rating: 60
[10]; [17]
  Lambsquarters plant response rating: 75
[11]; Postemergence, 16 g ai/ha
  Plant response rating, Galium: 60
[11]; Postemergence, 31 g ai/ha
  Plant response rating, Galium: 65
[11]; [16]
  Galium plant response rating: 90
[11]; [17]
  Galium plant response rating: 90
[12]; Postemergence, 16 g ai/ha
  Plant response rating, Waterhemp: 25
[12]; Postemergence, 31 g ai/ha
  Plant response rating, Waterhemp: 40
[12]; [16]
  Waterhemp plant response rating: 55
[12]; [17]
  Waterhemp plant response rating: 90
[13]; Postemergence, 16 g ai/ha
  Plant response rating, Wheat: 0
[13]; Postemergence, 31 g ai/ha
  Plant response rating, Wheat: 5
[13]; [16]
  Wheat plant response rating: 35
[13]; [17]
  Wheat plant response rating: 15
[14]; Postemergence, 16 g ai/ha
  Plant response rating, Foxtail, Giant: 5
[14]; Postemergence, 31 g ai/ha
  Plant response rating, Foxtail, Giant: 5
[14]; [16]
  Foxtail, Giant plant response rating: 5
[14]; [17]
  Foxtail, Giant plant response rating: 20
[15]; Postemergence, 16 g ai/ha
  Plant response rating, Johnsongrass: 10
[15]; Postemergence, 31 g ai/ha
  Plant response rating, Johnsongrass: 10
[15]; [16]
  Johnsongrass plant response rating: 25
[15]; [17]
  Johnsongrass plant response rating: 20
Soybean (Glycine max); Postemergence, 16 g ai/ha
  Plant response rating, Soybean: 0
Soybean (Glycine max); Postemergence, 31 g ai/ha
  Plant response rating, Soybean: 0
Soybean (Glycine max); [16]
  Soybean plant response rating: 15
Soybean (Glycine max); [17]
  Soybean plant response rating: 20
